Molecules are shown by their SMILES. Where two headings read alike, the source gives them in different places.

The results in this text go back to US20120214847A1, “2-[1-PHENYL-5-HYDROXY-4a-SUBSTITUTED-HEXAHYDROCYCLOPENTA[F]INDAZOL-5-YL]ETHYL PHENYL DERIVATIVES AS GLUCOCORTICOID RECEPTOR LIGANDS” (Merck Sharp & Dohme Corp., priority 2009, published 2012).

This experiment concerns the target T1, human GR (Homo sapiens, UniProt P04150).
T1 construct: naturally expresses the human GR; endogenous in cells
T1 sequence (P04150 1-777): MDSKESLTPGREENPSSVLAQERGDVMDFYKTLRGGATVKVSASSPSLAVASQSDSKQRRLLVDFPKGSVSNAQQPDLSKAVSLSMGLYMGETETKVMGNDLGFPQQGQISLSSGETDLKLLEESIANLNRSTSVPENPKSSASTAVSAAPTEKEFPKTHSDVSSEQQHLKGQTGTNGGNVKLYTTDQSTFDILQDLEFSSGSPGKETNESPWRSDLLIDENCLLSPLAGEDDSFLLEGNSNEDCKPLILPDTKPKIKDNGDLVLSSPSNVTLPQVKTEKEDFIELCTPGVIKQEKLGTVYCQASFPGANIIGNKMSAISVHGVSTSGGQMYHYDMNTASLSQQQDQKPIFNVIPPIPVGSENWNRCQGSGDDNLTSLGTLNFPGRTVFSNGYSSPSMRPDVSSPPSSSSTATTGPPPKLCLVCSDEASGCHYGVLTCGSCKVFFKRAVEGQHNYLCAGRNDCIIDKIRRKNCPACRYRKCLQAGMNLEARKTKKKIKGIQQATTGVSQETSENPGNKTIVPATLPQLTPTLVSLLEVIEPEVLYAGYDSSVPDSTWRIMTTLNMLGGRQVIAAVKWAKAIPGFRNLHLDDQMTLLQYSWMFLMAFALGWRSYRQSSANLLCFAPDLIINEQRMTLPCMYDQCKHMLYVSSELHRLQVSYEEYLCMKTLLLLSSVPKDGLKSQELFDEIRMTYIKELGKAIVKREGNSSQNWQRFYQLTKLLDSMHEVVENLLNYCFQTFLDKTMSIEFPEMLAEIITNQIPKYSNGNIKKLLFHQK
In words: Trans-activation modulation of glucocorticoid receptor (GRAMMER), MMTV-LUC reporter in A549 cells. Format: cell-based. The settings on record: for Emax / Transactivation A549 Cells Grammer Emax (%): Emax relative to the activity obtained with 300 nM dexamethasone; for Emax: read-out: Transactivation A549 Cells Grammer Emax (%); for EC50: IP = inflection point, read-out: Transactivation A549 Cells Grammer IP. The source says:
Trans-Activation Modulation of Glucocorticoid Receptor (GRAMMER)
This assay assesses the ability of test compounds to control transcription from the MMTV-LUC reporter gene in lung adenocarcinoma A549 cells or HeLa cells, a human […] cell line that naturally expresses the human GR. The assay measures induction of a modified MMTV LTR/promoter linked to the LUC reporter gene.
The routine transient assay consists of plating 7,000-25,000 cells/well of a white, clear-bottom 96-well plate. Alternatively, 384-well plates can be used at a cell concentration of 10,000/well. The media that the cells are plated in is “exponential growth medium” which consists of phenol red-free RPMI1640 containing 10% FBS, 4 mM L-glutamine, 20 mM HEPES, 10 ug/mL human insulin, and 20 ug/mL gentamicin. Incubator conditions are 37° C. and 5% C02. The transfection is done in batch mode. The cells are trypsinized and counted to the right cell number in the proper amount of fresh media. It is then gently mixed with the FuGene6/DNA 25 mix and plated onto the 96 or 384-well plate, all the wells receive 100 uL or 40 uL, respectively, of medium+lipid/DNA complex then incubated 37° C. overnight. The transfection cocktail consists of serum-free OptiMEM, FuGene6 reagent and DNA. The manufacturer's (Roche Biochemical) protocol for cocktail setup is as follows: The lipid to DNA ratio is approximately 2.5:1 and the incubation time is 20 min at room temperature. Sixteen to 24 h after transfection, the cells are treated with dexamethasone to a final concentration of 10 nM as well as the compound of interest, such that final DMSO (vehicle) concentration is equal to or less than 1%. Each plate also contains samples that are treated with 10 nM dexamethasone alone, which is used as the 100% activity control. The cells are exposed to the compounds for 24 h. After 24 h, the cells are lysed by a Promega cell culture lysis buffer for approximately 30 min and then the luciferase activity in the extracts is assayed in the 96-well format luminometer. In 384 well format, Steady-Glo (Promega) or Steady-Lite (PerkinElmer) can be used by adding an equal volume of reagent to the media present in each well. Activity induced by 10 nM dexamethasone alone is set at 100% activity. Antagonist activity is calculated by determining the decrease in dexamethasone-induced activity in response to compound treatment relative to samples that were treated with dexamethasone alone. Results are expressed as % inhibition of 10 nM dexamethasone activity or as fold of 10 nM dexamethasone activity. This transactivation assay can be performed in an agonist and antagonist mode to identify these different activities.
Activity of test compounds is calculated as the Emax relative to the activity obtained with 300 nM dexamethasone. […] The exemplified tissue selective glucocorticoid receptor modulators of the present invention display agonist activity in this assay of greater than 5% and less than 100%, and maximal transactivation activity less then maximal transrepression activity. The action of compounds is also tested in an antagonist mode (Anti-GRAMMER) in which the cells are treated with medium containing an agonist such as 10 nM DEX and the ability of agents to inhibit the activation by an agonist is measured.

As usually defined, the Emax is the maximal effect, on the per cent scale that the assay sets. For `NC(=O)c1ccccc1CC[C@]1(O)CCC2=Cc3c(cnn3-c3ccc(F)cc3)C[C@@]21C1CC1` [Example 23, 2-{2-[(4aR,5R)-4a-Cyclopropyl-1-(4-fluorophenyl)-5-hydroxy-1,4,4a,5,6,7-hexahydrocyclopenta[f]indazol-5-yl]ethyl}benzamide], the Emax (A549, A549 cells) is 21%. Further, the EC50 (A549 cells) turned out to be 37 nM.

`O[C@@]1(CCc2cc(C(F)(F)F)ccn2)CCC2=Cc3c(cnn3-c3ccc(F)cc3)C[C@@]21C1CC1` [Example 32, (4aR,5R)-4a-Cyclopropyl-1-(4-fluorophenyl)-5-{2-[4-(trifluoromethyl)pyridin-2-yl]ethyl}-1,4,4a,5,6,7-hexahydrocyclopenta[f]indazol-5-ol]: the Emax (A549, A549 cells) is 11%. For the setting “A549 cells”, the EC50 was 65 nM.

On to `CC[C@]12Cc3cnn(-c4ccc(F)cc4)c3C=C1CC[C@@]2(O)CC1OC(=O)c2ccccc21` (stereo partly drawn) [Example 71, 3-{[(4aS,5R)-4a-Ethyl-1-(4-fluorophenyl)-5-hydroxy-1,4,4a,5,6,7-hexahydrocyclopenta[f]indazol-5-yl]methyl}-2-benzofuran-1(3H)-one], for which, under “A549, A549 cells”, the Emax came out at 30%. For the same compound, under “A549 cells”, the EC50 is 78 nM.

For the compound `NC(=O)c1c(C2CC2)ccnc1CC[C@]1(O)CCC2=Cc3c(cnn3-c3ccc(F)cc3)C[C@@]21C1CC1` [Example 49, 4-Cyclopropyl-2-{2-[(4aR,5R)-4a-cyclopropyl-1-(4-fluorophenyl)-5-hydroxy-1,4,4a,5,6,7-hexahydrocyclopenta[f]indazol-5-yl]ethyl}pyridine-3-carboxamide], for the setting “A549, A549 cells”, the Emax came out at 30%. Also, the EC50 (A549 cells) was determined as 9 nM.

`COc1ccnc(CC[C@]2(O)CCC3=Cc4c(cnn4-c4ccc(F)cc4)C[C@@]32C2CC2)c1C(F)C(N)=O` (stereo partly drawn) [Example 66, 2-(2-{2-[(4aR,5R)-4a-Cyclopropyl-1-(4-fluorophenyl)-5-hydroxy-1,4,4a,5,6,7-hexahydrocyclopenta[f]indazol-5-yl]ethyl}-4-methoxypyridin-3-yl)-2-fluoroacetamide]: under “A549 cells”, the Emax was 45% and the EC50 was 7 nM.

For the compound `CC[C@]12Cc3cnn(-c4ccc(F)cc4)c3C=C1CC[C@@]2(O)CCc1cc(C)ccn1` [Example 33, (4aS,5R)-4a-Ethyl-1-(4-fluorophenyl)-5-[2-(4-methylpyridin-2-yl)ethyl]-1,4,4a,5,6,7-hexahydrocyclopenta[f]indazol-5-ol], the maximal response (Emax) (A549, A549 cells) stood at 27%. Further, under “A549 cells”, the EC50 worked out at 72 nM.

Regarding `CC[C@]12Cc3cnn(-c4ccccc4)c3C=C1CC[C@@]2(O)CC(O)c1ccccn1` (single isomer, unassigned) [Example 67a], the maximum response (Emax) (A549, A549 cells) was 20%. Besides, the EC50 (A549 cells) worked out at 284 nM.

On to `CC[C@]12Cc3cnn(-c4cccnc4)c3C=C1CC[C@@]2(O)CCc1cccc(F)c1C#N` [Example 10, 2-{2-[(4aS,5R)-4a-Ethyl-5-hydroxy-1-(pyridin-3-yl)-1,4,4a,5,6,7-hexahydrocyclopenta[f]indazol-5-yl]ethyl}-6-fluorobenzonitrile], for which, for the setting “A549, A549 cells”, the Emax stood at 20%. Also, the EC50 (A549 cells) amounted to 116 nM.

`NC(=O)C(O)c1ccccc1CC[C@]1(O)CCC2=Cc3c(cnn3-c3ccc(F)cc3)C[C@@]21C1CC1` (single isomer, unassigned) [Example 3b]: where the note is “A549 cells”, the “Transactivation A549 Cells Grammer Emax (%)” value worked out at 19% and the EC50 is 108 nM.

Regarding `OC(C[C@]1(O)CCC2=Cc3c(cnn3-c3ccc(F)cc3)C[C@@]21C1CC1)c1ccccn1` (stereo partly drawn) [Example 78, (4aR,5R)-4a-Cyclopropyl-1-(4-fluorophenyl)-5-[2-hydroxy-2-(pyridin-2-yl)ethyl]-1,4,4a,5,6,7-hexahydrocyclopenta[f]indazol-5-ol], the Emax (A549, A549 cells) is 13%. Moreover, the EC50 (A549 cells) is 66 nM.

Regarding `CC[C@]12Cc3cnn(-c4ccc(F)cc4)c3C=C1CC[C@@]2(O)CC(O)c1ccccn1` (stereo partly drawn) [Example 68, (4aS,5R)-4a-Ethyl-1-(4-fluorophenyl)-5-[2-hydroxy-2-(pyridin-2-yl)ethyl]-1,4,4a,5,6,7-hexahydrocyclopenta[f]indazol-5-ol], where the note is “A549, A549 cells”, the Emax is 21%. The EC50 (A549 cells) amounted to 49 nM.

As to `O=C(NC1(CO)CC1)c1ccccc1CC[C@]1(O)CCC2=Cc3c(cnn3-c3ccc(F)cc3)C[C@@]21C1CC1` [Example 46, 2-{2-[(4aR,5R)-4a-Cyclopropyl-1-(4-fluorophenyl)-5-hydroxy-1,4,4a,5,6,7-hexahydrocyclopenta[f]indazol-5-yl]ethyl}-N-[1-(hydroxymethyl)cyclopropyl]benzamide], where the note is “A549, A549 cells”, the Emax was 34%. Under “A549 cells”, the EC50 worked out at 20 nM.

`CC[C@]12Cc3cnn(-c4ccc(F)cc4)c3C=C1CC[C@@]2(O)CCc1ncccc1F` [Example 17, (4aS,5R)-4a-Ethyl-1-(4-fluorophenyl)-5-[2-(3-fluoropyridin-2-yl)ethyl]-1,4,4a,5,6,7-hexahydrocyclopenta[f]indazol-5-ol]: for the setting “A549, A549 cells”, the Emax was 44%. The EC50 (A549 cells) was 30 nM.

As for `NC(=O)c1ccccc1CC[C@]1(O)CCC2=Cc3c(cnn3-c3ccccc3)C[C@@]21C1CC1` [Example 29, 2-{2-[(4aR,5R)-4a-Cyclopropyl-5-hydroxy-1-phenyl-1,4,4a,5,6,7-hexahydrocyclopenta[f]indazol-5-yl]ethyl}benzamide], the maximal effect (Emax) (A549, A549 cells) came to 12%. In addition, the EC50 (A549 cells) was 74 nM.

For the compound `CC[C@]12Cc3cnn(-c4ccc(F)cc4)c3C=C1CC[C@@]2(O)CCc1ccccc1CCC(N)=O` [Example 22, 3-(2-{2-[(4aS,5R)-4a-Ethyl-1-(4-fluorophenyl)-5-hydroxy-1,4,4a,5,6,7-hexahydrocyclopenta[f]indazol-5-yl]ethyl}phenyl)propanamide], the maximum response (Emax) (A549, A549 cells) is 28%. Moreover, the EC50 (A549 cells) was found to be 123 nM.

On to `CC[C@]12Cc3cnn(-c4ccccc4)c3C=C1CC[C@@]2(O)CC(O)c1cc(C#N)ccn1` (stereo partly drawn) [Example 75, 2-{2-[(4aS,5R)-4a-Ethyl-5-hydroxy-1-phenyl-1,4,4a,5,6,7-hexahydrocyclopenta[f]indazol-5-yl]-1-hydroxyethyl}pyridine-4-carbonitrile], for which the Emax (A549, A549 cells) was 10%. Moreover, for the setting “A549 cells”, the EC50 amounted to 106 nM.

As to `CC[C@]12Cc3cnn(-c4ccc(F)cc4)c3C=C1CC[C@@]2(O)CCc1ccccn1` [Example 16, (4aS,5R)-4a-Ethyl-1-(4-fluorophenyl)-5-[2-(pyridin-2-yl)ethyl]-1,4,4a,5,6,7-hexahydrocyclopenta[f]indazol-5-ol], the Emax (A549, A549 cells) stood at 31%. For the same compound, the EC50 (A549 cells) amounted to 80 nM.

With `CC[C@]12Cc3cnn(-c4ccccc4)c3C=C1CC[C@@]2(O)CC(O)c1ccccn1` (single isomer, unassigned) [Example 67b], under “A549 cells”, the “Transactivation A549 Cells Grammer Emax (%)” value is reported as 10% and the EC50 was 174 nM.
